Reference: US20250000865A1, “COMPOUND FOR REDUCING URIC ACID LEVELS” (NEWSOARA BIOPHARMA CO., LTD., priority 2021, published 2025)

System: healthy subjects
Test: Phase I clinical trial, single-dose groups: uric acid index before and after treatment
Assay type: in vivo, human
Conditions: for Uric acid (UA) Mean / Uric acid (UA) Median / Uric acid (UA) Minimum value / Uric acid (UA) maximum value / Uric acid (UA) Changes over baseline at last visit (on day 6), Mean / Uric acid (UA) Changes over baseline at last visit (on day 6), Median / Uric acid (UA) Changes over baseline at last visit (on day 6), Minimum value / Uric acid (UA) Changes over baseline at last visit (on day 6), maximum value / Uric acid (UA) Changes over baseline on day 2, Mean / Uric acid (UA) Changes over baseline on day 2, Median / Uric acid (UA) Changes over baseline on day 2, Minimum value / Uric acid (UA) Changes over baseline on day 2, maximum value / Uric acid (UA) Changes over baseline on day 4, Mean / Uric acid (UA) Changes over baseline on day 4, Median / Uric acid (UA) Changes over baseline on day 4, Minimum value / Uric acid (UA) Changes over baseline on day 4, maximum value: N = 9
Description: The changes of uric acid levels in subjects in single-dose and multi-dose groups of Compound I are shown in FIG. 1A (single dose of 6 mg and single dose of 10 mg), FIG. 1B (single dose of 20 mg and single dose of 30 mg), and FIG. 2 (multi-dose of 10 mg and multi-dose of 20 mg). The corresponding results are also shown in Tables 1.1, 1.2, 1.3, and 2.1, and tables 2.2, 2.3, and 2.4.

[1] = Last visit (day 6), single dose 6 mg
[2] = Last visit (day 6), single dose 10 mg
[3] = Last visit (day 6), single dose 20 mg
[4] = Last visit (day 6), single dose 30 mg

Structure (SMILES): COc1cccc2c1ncc1c(=O)n(C3CCC(C(=O)O)CC3)c(=O)n(-c3cccc(Cl)c3)c12 (stereo not shown) [Compound I, 4-[1-(3-chlorophenyl)-7-methoxy-2,4-dioxo-pyrimido[5,4-c]quinolin-3-yl]cyclohexanecarboxylic acid]
- Uric acid (UA) Mean (Baseline, single dose 6 mg): 315.9 µmol/L
- Uric acid (UA) Median (Baseline, single dose 6 mg): 319.0 µmol/L
- Uric acid (UA) Minimum value (Baseline, single dose 6 mg): 185 µmol/L
- Uric acid (UA) maximum value (Baseline, single dose 6 mg): 429 µmol/L
- Uric acid (UA) Mean (Baseline, single dose 10 mg): 335.2 µmol/L
- Uric acid (UA) Median (Baseline, single dose 10 mg): 330.0 µmol/L
- Uric acid (UA) Minimum value (Baseline, single dose 10 mg): 224 µmol/L
- Uric acid (UA) maximum value (Baseline, single dose 10 mg): 446 µmol/L
- Uric acid (UA) Mean (Baseline, single dose 20 mg): 326.0 µmol/L
- Uric acid (UA) Median (Baseline, single dose 20 mg): 320.0 µmol/L
- Uric acid (UA) Minimum value (Baseline, single dose 20 mg): 256 µmol/L
- Uric acid (UA) maximum value (Baseline, single dose 20 mg): 436 µmol/L
- Uric acid (UA) Mean (Baseline, single dose 30 mg): 300.9 µmol/L
- Uric acid (UA) Median (Baseline, single dose 30 mg): 277.0 µmol/L
- Uric acid (UA) Minimum value (Baseline, single dose 30 mg): 209 µmol/L
- Uric acid (UA) maximum value (Baseline, single dose 30 mg): 401 µmol/L
- Uric acid (UA) Mean (Day 2, single dose 6 mg): 272.9 µmol/L
- Uric acid (UA) Median (Day 2, single dose 6 mg): 272.0 µmol/L
- Uric acid (UA) Minimum value (Day 2, single dose 6 mg): 160 µmol/L
- Uric acid (UA) maximum value (Day 2, single dose 6 mg): 347 µmol/L
- Uric acid (UA) Mean (Day 2, single dose 10 mg): 266.1 µmol/L
- Uric acid (UA) Median (Day 2, single dose 10 mg): 254.0 µmol/L
- Uric acid (UA) Minimum value (Day 2, single dose 10 mg): 161 µmol/L
- Uric acid (UA) maximum value (Day 2, single dose 10 mg): 447 µmol/L
- Uric acid (UA) Mean (Day 2, single dose 20 mg): 194.9 µmol/L
- Uric acid (UA) Median (Day 2, single dose 20 mg): 209.0 µmol/L
- Uric acid (UA) Minimum value (Day 2, single dose 20 mg): 105 µmol/L
- Uric acid (UA) maximum value (Day 2, single dose 20 mg): 251 µmol/L
- Uric acid (UA) Mean (Day 2, single dose 30 mg): 135.8 µmol/L
- Uric acid (UA) Median (Day 2, single dose 30 mg): 144.0 µmol/L
- Uric acid (UA) Minimum value (Day 2, single dose 30 mg): 60 µmol/L
- Uric acid (UA) maximum value (Day 2, single dose 30 mg): 178 µmol/L
- Uric acid (UA) Mean (Day 4, single dose 6 mg): 285.9 µmol/L
- Uric acid (UA) Median (Day 4, single dose 6 mg): 300.0 µmol/L
- Uric acid (UA) Minimum value (Day 4, single dose 6 mg): 193 µmol/L
- Uric acid (UA) maximum value (Day 4, single dose 6 mg): 378 µmol/L
- Uric acid (UA) Mean (Day 4, single dose 10 mg): 302.8 µmol/L
- Uric acid (UA) Median (Day 4, single dose 10 mg): 304.0 µmol/L
- Uric acid (UA) Minimum value (Day 4, single dose 10 mg): 199 µmol/L
- Uric acid (UA) maximum value (Day 4, single dose 10 mg): 462 µmol/L
- Uric acid (UA) Mean (Day 4, single dose 20 mg): 277.7 µmol/L
- Uric acid (UA) Median (Day 4, single dose 20 mg): 279.0 µmol/L
- Uric acid (UA) Minimum value (Day 4, single dose 20 mg): 179 µmol/L
- Uric acid (UA) maximum value (Day 4, single dose 20 mg): 340 µmol/L
- Uric acid (UA) Mean (Day 4, single dose 30 mg): 217.9 µmol/L
- Uric acid (UA) Median (Day 4, single dose 30 mg): 232.0 µmol/L
- Uric acid (UA) Minimum value (Day 4, single dose 30 mg): 140 µmol/L
- Uric acid (UA) maximum value (Day 4, single dose 30 mg): 266 µmol/L
- Uric acid (UA) Mean [1]: 327.2 µmol/L
- Uric acid (UA) Median [1]: 341.0 µmol/L
- Uric acid (UA) Minimum value [1]: 227 µmol/L
- Uric acid (UA) maximum value [1]: 431 µmol/L
- Uric acid (UA) Mean [2]: 357.3 µmol/L
- Uric acid (UA) Median [2]: 367.0 µmol/L
- Uric acid (UA) Minimum value [2]: 243 µmol/L
- Uric acid (UA) maximum value [2]: 508 µmol/L
- Uric acid (UA) Mean [3]: 341.1 µmol/L
- Uric acid (UA) Median [3]: 358.0 µmol/L
- Uric acid (UA) Minimum value [3]: 237 µmol/L
- Uric acid (UA) maximum value [3]: 414 µmol/L
- Uric acid (UA) Mean [4]: 287.4 µmol/L
- Uric acid (UA) Median [4]: 283.0 µmol/L
- Uric acid (UA) Minimum value [4]: 207 µmol/L
- Uric acid (UA) maximum value [4]: 364 µmol/L
- Uric acid (UA) Changes over baseline at last visit (on day 6), Mean (single dose 6 mg): 11.3 µmol/L
- Uric acid (UA) Changes over baseline at last visit (on day 6), Median (single dose 6 mg): 22.0 µmol/L
- Uric acid (UA) Changes over baseline at last visit (on day 6), Minimum value (single dose 6 mg): -48 µmol/L
- Uric acid (UA) Changes over baseline at last visit (on day 6), maximum value (single dose 6 mg): 52 µmol/L
- Uric acid (UA) Changes over baseline on day 2, Mean (single dose 6 mg): -43.0 µmol/L
- Uric acid (UA) Changes over baseline on day 2, Median (single dose 6 mg): -32.0 µmol/L
- Uric acid (UA) Changes over baseline on day 2, Minimum value (single dose 6 mg): -112 µmol/L
- Uric acid (UA) Changes over baseline on day 2, maximum value (single dose 6 mg): 42 µmol/L
- Uric acid (UA) Changes over baseline on day 4, Mean (single dose 6 mg): -30.0 µmol/L
- Uric acid (UA) Changes over baseline on day 4, Median (single dose 6 mg): -18.0 µmol/L
- Uric acid (UA) Changes over baseline on day 4, Minimum value (single dose 6 mg): -86 µmol/L
- Uric acid (UA) Changes over baseline on day 4, maximum value (single dose 6 mg): 31 µmol/L
- Uric acid (UA) Changes over baseline at last visit (on day 6), Mean (single dose 10 mg): 22.1 µmol/L
- Uric acid (UA) Changes over baseline at last visit (on day 6), Median (single dose 10 mg): 19.0 µmol/L
- Uric acid (UA) Changes over baseline at last visit (on day 6), Minimum value (single dose 10 mg): -27 µmol/L
- Uric acid (UA) Changes over baseline at last visit (on day 6), maximum value (single dose 10 mg): 88 µmol/L
- Uric acid (UA) Changes over baseline on day 2, Mean (single dose 10 mg): -69.1 µmol/L
- Uric acid (UA) Changes over baseline on day 2, Median (single dose 10 mg): -70.0 µmol/L
- Uric acid (UA) Changes over baseline on day 2, Minimum value (single dose 10 mg): -133 µmol/L
- Uric acid (UA) Changes over baseline on day 2, maximum value (single dose 10 mg): 1 µmol/L
- Uric acid (UA) Changes over baseline on day 4, Mean (single dose 10 mg): -32.4 µmol/L
- Uric acid (UA) Changes over baseline on day 4, Median (single dose 10 mg): -29.0 µmol/L
- Uric acid (UA) Changes over baseline on day 4, Minimum value (single dose 10 mg): -92 µmol/L
- Uric acid (UA) Changes over baseline on day 4, maximum value (single dose 10 mg): 23 µmol/L
- Uric acid (UA) Changes over baseline at last visit (on day 6), Mean (single dose 20 mg): 15.1 µmol/L
- Uric acid (UA) Changes over baseline at last visit (on day 6), Median (single dose 20 mg): 9.0 µmol/L
- Uric acid (UA) Changes over baseline at last visit (on day 6), Minimum value (single dose 20 mg): -34 µmol/L
- Uric acid (UA) Changes over baseline at last visit (on day 6), maximum value (single dose 20 mg): 122 µmol/L
- Uric acid (UA) Changes over baseline on day 2, Mean (single dose 20 mg): -131.1 µmol/L
- Uric acid (UA) Changes over baseline on day 2, Median (single dose 20 mg): -130.0 µmol/L
- Uric acid (UA) Changes over baseline on day 2, Minimum value (single dose 20 mg): -211 µmol/L
- Uric acid (UA) Changes over baseline on day 2, maximum value (single dose 20 mg): -42 µmol/L
- Uric acid (UA) Changes over baseline on day 4, Mean (single dose 20 mg): -48.3 µmol/L
- Uric acid (UA) Changes over baseline on day 4, Median (single dose 20 mg): -62.0 µmol/L
- Uric acid (UA) Changes over baseline on day 4, Minimum value (single dose 20 mg): -106 µmol/L
- Uric acid (UA) Changes over baseline on day 4, maximum value (single dose 20 mg): 50 µmol/L
- Uric acid (UA) Changes over baseline at last visit (on day 6), Mean (single dose 30 mg): -13.4 µmol/L
- Uric acid (UA) Changes over baseline at last visit (on day 6), Median (single dose 30 mg): -20.0 µmol/L
- Uric acid (UA) Changes over baseline at last visit (on day 6), Minimum value (single dose 30 mg): -75 µmol/L
- Uric acid (UA) Changes over baseline at last visit (on day 6), maximum value (single dose 30 mg): 58 µmol/L
- Uric acid (UA) Changes over baseline on day 2, Mean (single dose 30 mg): -165.1 µmol/L
- Uric acid (UA) Changes over baseline on day 2, Median (single dose 30 mg): -152.0 µmol/L
- Uric acid (UA) Changes over baseline on day 2, Minimum value (single dose 30 mg): -261 µmol/L
- Uric acid (UA) Changes over baseline on day 2, maximum value (single dose 30 mg): -79 µmol/L
- Uric acid (UA) Changes over baseline on day 4, Mean (single dose 30 mg): -83.0 µmol/L
- Uric acid (UA) Changes over baseline on day 4, Median (single dose 30 mg): -69.0 µmol/L
- Uric acid (UA) Changes over baseline on day 4, Minimum value (single dose 30 mg): -162 µmol/L
- Uric acid (UA) Changes over baseline on day 4, maximum value (single dose 30 mg): -3 µmol/L
- uric acid level in the subjects, overall clinical trial result (single-dose and multi-dose groups, p<0.05): reduces the uric acid level in the subjects significantly
- uric acid level on the following days (days 4 and 6) (single-dose groups): gradually recovered
- uric acid level the next day after administration (single-dose groups, certain dose dependence): decreases obviously
